Read-outs that look alike come from different tables or passages of the source.
Experiments:
[1] = Extraction of ethanol from water with cetyl alcohol, equilibrium data and distribution coefficient; format: physicochemical; conditions: aqueous ethanol feed, 75° C.
Method: (§1) DC=(Wo/Ws)ext/(Wo/Ww)raff (1)
(§2) The slope of this line is the distribution coefficient.
Cetyl Alcohol as an Extraction Solvent For Ethanol. Cetyl alcohol was used as a solvent for ethanol extraction. Because cetyl alcohol melts between 47° C. and 50° C. and therefore is a solid at both room temperature (25° C.) and typical fermentation temperatures (40° C.), it has been overlooked as an extraction solvent. Cetyl alcohol was tested at 75° C. at a solvent:feed ratio of 5:1.

[2] = cetyl alcohol/oleic acid 50/50 wt %, 5:1, 75° C.
Method: One measure of the effectiveness of a solvent for extracting solutes is termed the distribution coefficient, which is calculated as follows in Formula (1):
as §1, §2
Mixtures of Cetyl Alcohol and Other Solvents For Extraction of Ethanol. Mixtures of cetyl alcohol with other solvents were used in order to produce a resulting extraction solvent having a lower melting point than pure cetyl alcohol. […] This solvent mixture was tested for ethanol extraction at a solvent:feed ratio of 5:1 at 75° C.

[3] = ethanol, ABE feed, cetyl alcohol/mixed xylenes 50/50 wt %
[4] = Batch separation of ethanol from xylenes using 5 Å zeolite molecular sieves; format: physicochemical; conditions: 10.0 grams feed (8.00 wt % ethanol, 0.07 wt % water, balance mixed xylenes) with 5.0 gm zeolite, 40° C.
[5] = approximately 6.0 grams 100-120 mesh 5 Å sieves, 10.1 mm ID column, 20.0 ml feed with 7.47 wt % ethanol in xylenes
Method: Commercially available Linde 5 Å molecular sieves containing binder were ground and sieved to 100-120 mesh using standard screens. After activation at 400° C., the sieves were cooled to 150° C. and poured directly into mixed xylenes.
The stopcock was opened and samples of liquid were taken every 10 minutes for analysis by gas chromatography. Data were normalized to produce a dimensionless concentration by dividing each of the outlet ethanol concentrations by that of the feed stream.

SMILES: CCCCCCCCCCCCCCCCO [Cetyl alcohol]
- emulsion formation as extraction solvent [1]: no indication of the formation of emulsions

SMILES: CCO [ethanol]
- Extract (Wo/Ws) ([2]; feed Wo/Ww 0.2000): 0.0316 Wo/Ws
- Extract (Wo/Ws) ([2]; feed Wo/Ww 0.5000): 0.0848 Wo/Ws
- Extract (Wo/Ws) ([3]; 5:1, 40° C., feed Wo/Ww 0.002): 0.00002 Wo/Ws
- Raffinate (Wo/Ww) ([3]; 5:1, 40° C., feed Wo/Ww 0.002): 0.00009 Wo/Ww
- Extract (Wo/Ws) ([3]; 5:1, 40° C., feed Wo/Ww 0.03): 0.0005 Wo/Ws
- Raffinate (Wo/Ww) ([3]; 5:1, 40° C., feed Wo/Ww 0.03): 0.0025 Wo/Ww
- Extract (Wo/Ws) ([3]; 5:1, 40° C., feed Wo/Ww 0.06): 0.0010 Wo/Ws
- Raffinate (Wo/Ww) ([3]; 5:1, 40° C., feed Wo/Ww 0.06): 0.0052 Wo/Ww
- Extract (Wo/Ws) ([3]; 5:1, 40° C., feed Wo/Ww 0.12): 0.0021 Wo/Ws
- Raffinate (Wo/Ww) ([3]; 5:1, 40° C., feed Wo/Ww 0.12): 0.0102 Wo/Ww
- Raffinate (Wo/Ww) ([3]; 5:1, 40° C., feed Wo/Ww 0.15): 0.0126 Wo/Ww
- Extract (Wo/Ws) ([3]; 5:1, 40° C., feed Wo/Ww 0.19): 0.0032 Wo/Ws
- Raffinate (Wo/Ww) ([3]; 5:1, 40° C., feed Wo/Ww 0.19): 0.0152 Wo/Ww
- Extract (Wo/Ws) ([3]; 5:1, 75° C., feed Wo/Ww 0.002): 0.00003 Wo/Ws
- Raffinate (Wo/Ww) ([3]; 5:1, 75° C., feed Wo/Ww 0.002): 0.00007 Wo/Ww
- Extract (Wo/Ws) ([3]; 5:1, 75° C., feed Wo/Ww 0.03): 0.0009 Wo/Ws
- Raffinate (Wo/Ww) ([3]; 5:1, 75° C., feed Wo/Ww 0.03): 0.0021 Wo/Ww
- Extract (Wo/Ws) ([3]; 5:1, 75° C., feed Wo/Ww 0.06): 0.0012 Wo/Ws
- Raffinate (Wo/Ww) ([3]; 5:1, 75° C., feed Wo/Ww 0.06): 0.0043 Wo/Ww
- Extract (Wo/Ws) ([3]; 5:1, 75° C., feed Wo/Ww 0.12): 0.0025 Wo/Ws
- Raffinate (Wo/Ww) ([3]; 5:1, 75° C., feed Wo/Ww 0.12): 0.0084 Wo/Ww
- Extract (Wo/Ws) ([3]; 5:1, 75° C., feed Wo/Ww 0.15): 0.0031 Wo/Ws
- Raffinate (Wo/Ww) ([3]; 5:1, 75° C., feed Wo/Ww 0.15): 0.0105 Wo/Ww
- Raffinate (Wo/Ww) ([3]; 5:1, 75° C., feed Wo/Ww 0.19): 0.0125 Wo/Ww
- ethanol content leveled out after contact with 5 Å zeolite pellets [4]: 1.07 wt %
- volume of effluent exited the column before ethanol appeared in the product [5]: 20 mL

Reference: patent publication US20110306801A1, “EXTRACTION AND SEPARATION PROCESSES FOR RECOVERY OF ORGANIC SOLUTES FROM FEED SOURCES AND APPARATUSES FOR PERFORMING SAME” (Trans Ionics Corporation, priority 2009, published 2011)
